Some test systems named below: Malme-3M; MOLT-4; A549; LOX IMVI; HCC 2998; UO-31; NCI-H460; T47D; MDA-N; U-251; SNB-75; SF-295; SK-MEL-2; EKVX; COLO 205; SK-MEL-28; SNB-19; SW-620; RPMI-8226.
What all share (test): NCI-60 cell line screen, 48 h

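A five-concentration, 48-hour dose response in 96-well plates underlies each endpoint, interpolated linearly between surrounding concentrations. GI50: concentration for 50% inhibition of growth.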 Activity calls are given as the source filed them. Rule as the data show it: active = GI50 up to about 1.1 µM and inactive = higher.

Turning to `O=S1(=O)c2ccccc2N2C(c3ccccc3)=NOC2(c2ccccc2)CC1c1ccc(Br)cc1` (stereo not drawn), the GI50 in the experiment on Malme-3M, with MOLT-4, with A549, in the experiment on LOX IMVI, with HCC 2998 and in the experiment with UO-31 was > 100 µM (inactive) each time. For the same molecule, the GI50 with NCI-H460, in the experiment on T47D, in the experiment with MDA-N, in the experiment with U-251, in the experiment with SNB-75 and in the experiment with SF-295 was > 100 µM (inactive) each time. Further, the GI50 with SK-MEL-2, in the experiment on EKVX, with COLO 205, in the experiment with SK-MEL-28, in the experiment with SNB-19 and with SW-620 was > 100 µM (inactive) throughout.

Turning to `COc1ccc(/C=C/C(=O)N[C@@H]2C(=O)N3[C@@H]2SC(C)(C)[C@@H]3C(=O)O)cc1`, the GI50 in the experiment with MOLT-4, with A549, with LOX IMVI, in the experiment on HCC 2998, in the experiment with UO-31 and in the experiment on NCI-H460 was > 100 µM (inactive) throughout. In addition, the GI50 in the experiment with RPMI-8226, with T47D, in the experiment on MDA-N, in the experiment with U-251, with SNB-75 and in the experiment on SF-295 was > 100 µM (inactive) each time. The GI50 with SK-MEL-2, in the experiment with EKVX, in the experiment with COLO 205, in the experiment with SK-MEL-28, in the experiment with SNB-19 and with SW-620 was > 100 µM (inactive) in each case.

In the case of `COC(=O)Nc1nc(=O)c2ccccc2[nH]1`, the GI50 in the experiment with Malme-3M is 53.3 µM (inactive); with MOLT-4, > 100 µM (inactive); in the experiment with A549, 0.0775 µM (active); in the experiment with HCC 2998, > 100 µM (inactive); in the experiment with UO-31, 32.1 µM (inactive); with NCI-H460, > 100 µM (inactive). Moreover, the GI50 with T47D was > 100 µM (inactive); in the experiment with MDA-N, 19.5 µM (inactive); in the experiment with U-251, 43.8 µM (inactive); with SNB-75, 28 µM (inactive); in the experiment with SF-295, 30.6 µM (inactive); with SK-MEL-2, > 100 µM (inactive). Further, the GI50 is > 100 µM (inactive) in the experiment with EKVX; > 100 µM (inactive) in the experiment on COLO 205; > 100 µM (inactive) in the experiment with SK-MEL-28; > 100 µM (inactive) in the experiment on SNB-19; 79.6 µM (inactive) with SW-620.

In the case of `COC(=O)/C=C(\S/C(=C(/c1ccccc1)n1cc(C(=O)OC)c(C(=O)OC)n1)c1ccccc1)C(=O)OC`, the GI50 in the experiment on Malme-3M was 14.8 µM (inactive); with MOLT-4, 2.31 µM (inactive); in the experiment on A549, 23.9 µM (inactive); in the experiment on LOX IMVI, 8.17 µM (inactive); with UO-31 it was 2.24 µM (inactive); with NCI-H460, 30.8 µM (inactive). For the same molecule, the GI50 is 1.95 µM (inactive) with RPMI-8226; 3.27 µM (inactive) in the experiment with T47D; 17.1 µM (inactive) in the experiment with MDA-N; 23.2 µM (inactive) in the experiment with U-251; 29.1 µM (inactive) in the experiment with SNB-75; 53.8 µM (inactive) in the experiment with SF-295. The GI50 in the experiment with SK-MEL-2 was 14.9 µM (inactive); with EKVX, 18.2 µM (inactive); with COLO 205, 1.74 µM (inactive); in the experiment on SK-MEL-28, 20.7 µM (inactive); in the experiment on SNB-19 it was 19.5 µM (inactive); with SW-620, 2.37 µM (inactive).

Take `CC(CO)(CBr)COC(=O)c1cc(Br)c(N)c(Br)c1` (stereo not drawn): the GI50 with MOLT-4 was > 100 µM (inactive); with A549, > 100 µM (inactive); in the experiment with LOX IMVI it was > 100 µM (inactive); in the experiment on HCC 2998, > 100 µM (inactive); in the experiment with UO-31, 2.67 µM (inactive); in the experiment on RPMI-8226 it was > 100 µM (inactive). The GI50 with T47D was > 100 µM (inactive); in the experiment on MDA-N it was 59.7 µM (inactive); in the experiment on U-251 it was 54 µM (inactive); in the experiment on SF-295, 37.4 µM (inactive); in the experiment on SK-MEL-2, > 100 µM (inactive); in the experiment on EKVX, 37.4 µM (inactive). Moreover, the GI50 was > 100 µM (inactive) in the experiment with COLO 205, > 100 µM (inactive) in the experiment on SK-MEL-28, 54.7 µM (inactive) with SNB-19 and > 100 µM (inactive) in the experiment with SW-620.

`CC(C)[C@H](O)C(=O)N[C@H]1Cc2ccc3c(c2)[C@]24C5=C(N=C(O5)[C@H](C(C)C)NC1=O)c1nc(Cl)c(o1)-c1c(Cl)[nH]c5cccc(c15)-c1cccc2c1N[C@H]4O3`: the GI50 in the experiment with Malme-3M is 0.00643 µM (active); with MOLT-4, 0.001 µM (active); in the experiment with A549, 0.0148 µM (active); with LOX IMVI, 0.00392 µM (active); with HCC 2998, 0.00879 µM (active); in the experiment with UO-31 it was 0.0457 µM (active). Further, the GI50 with NCI-H460 was 0.0119 µM (active); in the experiment on T47D, 3.9 µM (inactive); in the experiment on MDA-N, 0.00162 µM (active); in the experiment on U-251 it was 0.00547 µM (active); with SF-295, 0.0167 µM (active); in the experiment with EKVX, 0.224 µM (active). Further, the GI50 in the experiment on SK-MEL-28 was 0.00718 µM (active); in the experiment with SNB-19, 0.00644 µM (active); in the experiment with SW-620, 0.00671 µM (active).

`CCCC(=O)OC1=C(c2ccccc2)Sc2ccccc2-n2cccc21`: the GI50 in the experiment with Malme-3M, in the experiment on MOLT-4, with A549, in the experiment on LOX IMVI, in the experiment on HCC 2998 and in the experiment on RPMI-8226 was > 10 µM (inactive) in each case. Also, the GI50 in the experiment with T47D, in the experiment with MDA-N, in the experiment with SNB-75, in the experiment on SF-295, in the experiment on EKVX and in the experiment with COLO 205 was > 10 µM (inactive) in each case. The GI50 in the experiment on SK-MEL-28 and with SW-620 was > 10 µM (inactive) in each case.

On to `CC(NC(=O)c1ccc(NP(=O)(OCc2ccc([N+](=O)[O-])o2)N(C)CCCCCl)cc1)c1ccc(OCC2CCCCC2)c(C(N)=O)c1` (stereo not drawn), for which the GI50 in the experiment on MOLT-4 is 9.71 µM (inactive); with A549, 10.6 µM (inactive); in the experiment with LOX IMVI, 13.7 µM (inactive); in the experiment with HCC 2998 it was 11.4 µM (inactive); in the experiment with UO-31 it was 43.4 µM (inactive); in the experiment with NCI-H460, 17.1 µM (inactive). For the same molecule, the GI50 with RPMI-8226 was 4.86 µM (inactive); in the experiment with T47D, 5.37 µM (inactive); in the experiment with MDA-N, 17.7 µM (inactive); in the experiment with U-251, 19.4 µM (inactive); with SNB-75, 11 µM (inactive); with SF-295 it was 15.5 µM (inactive). The GI50 is 16.1 µM (inactive) in the experiment on SK-MEL-2; 10.9 µM (inactive) in the experiment on COLO 205; 17 µM (inactive) in the experiment with SK-MEL-28; 28.2 µM (inactive) in the experiment with SNB-19; 28.4 µM (inactive) in the experiment on SW-620.

The values above are taken from ChEMBL document CHEMBL1201862, “PubChem BioAssay data set” (2004).
